Columns and labels:
[1] = test system: guinea-pig left atrium muscle; test: Effects of compound on the functional refractory period in guinea-pig left atrium muscle; conditions: isolated atrium muscle, stimulated at 1 Hz, compound added cumulatively, 15 minutes per concentration, 36±1° C.
Source text: Effects of compound on the functional refractory period in guinea-pig left atrium muscle and right ventricular papillary muscle
Hearts were removed from guinea-pigs, and left atrium muscle or right ventricular papillary muscle were isolated therefrom in a Krebs-Henseleit solution aerated with 95% O2+5% CO2. The samples were stimulated electrically at a rate of 1 Hz and a voltage of 1.5 times of the threshold value reacted to stimulation (basic stimulation; S1) by using an electric stimulating apparatus. The contraction occurred at that time was recorded by a thermal stylus recorder via a FD pickup and a strain pressure amplifier. The functional refractory period is defined as the shortest time interval between S1 resulting from determinable contraction and an extra stimulation (S2). The time interval between S1 and S2 in the left atrium muscle sample was started from 150 msec, decreased in 10 msec steps until 100 msec, and thereafter 5 msec steps to the functional refractory period. For the right ventricular papillary muscle sample, it was started from 300 msec and decreased in 10 msec steps until the functional refractory period. Herein, S2 was set at twice of the threshold value which reacted to stimulation. The experimental temperature was 36±1° C. […] After determining the basic value before addition of the compound, the compound was added cumulatively, incubated for 15 minutes for respective concentration, and thereafter the functional refractory period was determined.

CC(=O)Nc1cc2c(cc1[N+](=O)[O-])OC(C)(C)[C@H](O)[C@H]2NCCc1ccc([N+](=O)[O-])cc1 (stereo in doubt)
melting point: 211 to 213 °C (dec.)

CC(=O)Nc1cc2c(cc1[N+](=O)[O-])OC(C)(C)[C@H](O)[C@H]2NCCc1ccccc1 [compound 1]
Prolongation effect on FRP EC20 [1]: 6.1 µM

CC(=O)Nc1cc2c(cc1[N+](=O)[O-])OC(C)(C)[C@H](O)[C@H]2NCCc1ccc(O)cc1 [compound 4]
Prolongation effect on FRP EC20 [1]: 5.0 µM

CC(=O)Nc1cc2c(cc1[N+](=O)[O-])OC(C)(C)[C@H](O)[C@H]2NCCc1ccc([N+](=O)[O-])cc1 [compound 8]
Prolongation effect on FRP EC20 [1]: 1.8 µM

CC(=O)Nc1cc2c(cc1[N+](=O)[O-])OC(C)(C)[C@H](O)[C@H]2NCCc1ccc(Cl)cc1 [compound 6]
Prolongation effect on FRP EC20 [1]: 1.4 µM

CC(=O)Nc1cc2c(cc1[N+](=O)[O-])OC(C)(C)[C@H](O)[C@H]2NCCCCc1ccccc1 [compound 3]
Prolongation effect on FRP EC20 [1]: 4.0 µM

COc1ccc(CCN[C@H]2c3cc(NC(C)=O)c([N+](=O)[O-])cc3OC(C)(C)[C@@H]2O)cc1 [compound 5]
Prolongation effect on FRP EC20 [1]: 5.5 µM
